Experimental data reported in patent publication US10478421B1, “Sortilin binding compounds, formulations, and uses thereof” (University of Florida, priority 2016, dated 2019).

System: LDLR
Test: Cellular LDLR by immunoblot in McA cells
Type: cell-based, rat
Details: 10 μM, 18 h, 1% BSA/DMEM
Experimental: McA cells were incubated in 1% BSA/DMEM with DMSO, 541 (10 μM) or 984 (10 μM) for 18 h. Cellular proteins were extracted and analyzed by IB for LDLR (LS-C146979, 1:2000) (FIG. 5A) or PCSK9 (Ab125251, 1:2000) (FIG. 5B) using HRP-linked secondary antibody and ECL detection. Loading controls included β-ACTIN (Rockland ph600-401-886) and GAPDH (cb1001mAb (6C5). Band intensities were measured using ChemiDocXRS+ system and evaluated using ImageLab 5.1 software (BioRad). Results are average of triplicates ±S.D. PCSK9 is a known ligand for sortilin where sortilin acts as a chaperone for PCSK9 secretion.

Q: Which “effect on LDL receptors” value does the source give for `CN1CCC[C@H]1C(=O)Nc1cccc(NC(=O)CCc2ccccc2)c1` [cpd984, (2S)-1-methyl-N-{3-[(3-phenylpropanoyl)-amino]phenyl} pyrrolidine-2-carboxamide] here?
A: Its value is “increase in LDL receptors”.
